Test results: patent US20240425502A1, “BICYCLIC HETEROAROMATIC COMPOUNDS AND THEIR USE AS PEST CONTROL AGENTS” (PI INDUSTRIES LTD., priority 2021, published 2024)

Columns and labels:
Type in all cases: in vivo
[1] = system: Nilaparvata lugens; experiment: Nilaparvata lugens seedling dip test (paddy seedlings, third instar nymphs); conditions: 72 h after release, dead and moribund combined, compared to untreated control, read-out: percent mortality
[2] = system: Bemisia tabaci; experiment: Bemisia tabaci leaf dip test (brinjal leaves, whitefly adults); conditions: foliar, 72 h after release, dead and moribund combined, compared to untreated control, read-out: percent mortality
Experimental: The leaf dip method was used for testing, wherein the required quantity of the compound was weighed and dissolved in a tube containing a solvent solution. The tube was put on a vortex at 2000 rpm for 90 min for proper mixing and then the mixture was diluted with a 0.01% Triton-X solution to the desired test concentration. Brinjal leaves were dipped in the compound solution for 10 seconds, shade dried for 20 min and then placed, with the abaxial side of the leaf up, on 4 ml of a 1% agar-agar solution in respective container caps. Known numbers of freshly emerged whitefly adults were collected, using a modified aspirator, and released into a perforated container in which the cap containing the treated leaf was placed. The containers were kept in a plant growth chamber at a temperature of 25° C. and a relative humidity of 70%. Observations on dead, moribund and alive adults were recorded 72 h after the release. Percent mortality was calculated by combining dead and moribund adults and comparing the result to the one of the untreated control. The compounds 32 53 58 79 80 81 82 84 87 88 89 94 95 96 101 102 103 104 105 106 107 108 109 112 113 114 115 116 117 118 119 120 123 124 125 126 127 130 135 138 139 140 144 145 147 150 154 156 158 159 164 167 168 169 170 171 188 189 191 198 199 200 201 202 206 207 208 209 210 213 216 223 224 225 227 228 231 232 233 234 235 236 238 242 243 244 246 and 247 recorded≥70 percent mortality @ 300 PPM.

[3] = system: Myzus persicae; experiment: Myzus persicae leaf dip test (capsicum leaves, third instar nymphs); conditions: foliar, 72 h after release, dead and moribund combined, compared to untreated control, read-out: percent mortality

Measured: mortality at 300 ppm

O=c1nc2n(Cc3cnc(Cl)nc3)cccc-2c(=O)n1-c1ccc(F)cc1Cl [Compound 225, 3-(2-chloro-4-fluorophenyl)-8-((2-chloropyrimidin-5-yl)methyl)pyrido[2,3-d]pyrimidine-2,4(3H,8H)-dione]
≥ 70%: all assays above

O=c1nc2n(Cc3cnc(Cl)nc3)cccc-2c(=O)n1-c1cccc(F)c1 [Compound 118, 8-((2-chloropyrimidin-5-yl)methyl)-3-(3-fluorophenyl)pyrido[2,3-d]pyrimidine-2,4(3H,8H)-dione]
≥ 70%: all assays above

O=c1nc2n(Cc3cnc(Cl)s3)cccc-2c(=O)n1-c1ccc2c(c1)OC(F)(F)O2 [Compound 247, 8-((2-chlorothiazol-5-yl)methyl)-3-(2,2-difluorobenzo[d][1,3]dioxol-5-yl)pyrido[2,3-d]pyrimidine-2,4(3H,8H)-dione]
≥ 70%: all assays above

O=c1nc2n(Cc3cnc(Cl)nc3)cccc-2c(=O)n1-c1ccc(F)cc1 [Compound 117, 8-((2-chloropyrimidin-5-yl)methyl)-3-(4-fluorophenyl)pyrido[2,3-d]pyrimidine-2,4(3H,8H)-dione]
≥ 70%: all assays above

O=c1nc2n(Cc3cnc(Cl)nc3)cccc-2c(=O)n1-c1ccc(F)c(C(F)(F)F)c1 [Compound 213, 8-((2-chloropyrimidin-5-yl)methyl)-3-(4-fluoro-3-(trifluoromethyl)phenyl)pyrido[2,3-d]pyrimidine-2,4(3H,8H)-dione]
≥ 70%: all assays above

O=c1nc2n(Cc3ccc(Cl)nc3)cccc-2c(=O)n1-c1cccc(OC(F)(F)F)c1 [Compound 123, 8-((6-chloropyridin-3-yl)methyl)-3-(3-(trifluoromethoxy)phenyl)pyrido[2,3-d]pyrimidine-2,4(3H,8H)-dione]
≥ 70%: all assays above

O=c1nc2n(Cc3cnc(Cl)nc3)cccc-2c(=O)n1-c1ccc2c(c1)OC(F)(F)O2 [Compound 198, 8-((2-chloropyrimidin-5-yl)methyl)-3-(2,2-difluorobenzo[d][1,3]dioxol-5-yl)pyrido[2,3-d]pyrimidine-2,4(3H,8H)-dione]
≥ 70%: all assays above

O=c1nc2n(Cc3ccc(Cl)nc3)cccc-2c(=O)n1-c1ccc(OCC(F)(F)F)cc1 [Compound 223, 8-((6-chloropyridin-3-yl)methyl)-3-(4-(2,2,2-trifluoroethoxy)phenyl)pyrido[2,3-d]pyrimidine-2,4(3H,8H)-dione]
≥ 70%: all assays above

O=c1nc2n(Cc3cnc(Cl)nc3)cccc-2c(=O)n1-c1ccc(Br)c(F)c1 [Compound 235, 3-(4-bromo-3-fluorophenyl)-8-((2-chloropyrimidin-5-yl)methyl)pyrido[2,3-d]pyrimidine-2,4(3H,8H)-dione]
≥ 70%: all assays above

O=c1nc2n(Cc3cnc(Cl)s3)cccc-2c(=O)n1-c1ccc(OCC(F)(F)F)cc1 [Compound 243, 8-((2-chlorothiazol-5-yl)methyl)-3-(4-(2,2,2-trifluoroethoxy)phenyl)pyrido[2,3-d]pyrimidine-2,4(3H,8H)-dione]
≥ 70%: all assays above
